Assay results: patent publication US7166296B2, “Pharmaceutical formulations and ligands for use therein; mimetics for UEA-1” (Sarlan, Ltd., priority 2001, dated 2007)
Converted amounts (≈) assume the structure as drawn.

Assays:
[1] = system: UEA-1 binding sites on Caco-2 cell membrane preparations; experiment: Single tier competition assay: inhibition of biotinylated UEA-1 binding, compound and biotinylated UEA-1 incubated together; set-up: species or system human; details: for Avg % Inhibtion / Av % Inhibition: Single Tier Assay; for Avg % Inhibtion: library MSI 26; for Av % Inhibition: library MSI 22
Procedure: (§1) The epithelial cell binding ability of compounds and mixtures obtained from synthetic combinatorial libraries was determined by competition assays. These assays were set up to measure the inhibition of binding of biotinylated UEA-1 to membrane preparations of the epithelial cell line Caco-2 (colon carcinoma cells-2), by compounds and mixtures of the combinatorial libraries. This cell line is a conventional model for epithelial cells.
(§2) Two competition inhibition assays were used in this case, namely single tier and two tier assays. These assays differed from each other in that in the single tier assay, the mixtures/compounds and the biotinylated UEA-1 were incubated together with the Caco-2 cell membrane preparations, while in case of the two-tier assay, the mixture/compounds were allowed to incubate alone with the cell membranes in the absence of biotinylated UEA-1, which was added in the next step. Addition of the extra step in the two-tier assay was to ensure that the compounds inhibiting the binding of biotinylated UEA-1 to the Caco-2 cell membranes were doing so by themselves binding to surface receptors on the Caco-2 cells and not to the biotinylated UEA-1. Each assay will be described in detail.
(§3) • 1. Confluent Caco-2 cell monolayers (grown in 75 cm^2 flasks for up to 1 week at 37° C. and 5% CO2) were washed twice in Dulbecco's PBS (DPBS). • 2. Cell monolayers were treated with 10 mM EDTA-DPBS for 5–10 min at 37° C. and cells were harvested by centrifugation at 1000 rpm for 5 min. • 3. Cells were washed 3 times in DPBS. • 4. […] The cells were homogenised for 30 sec. • 6. The homogenates were centrifuged in hard walled tubes at 40,000 rpm for 45 min at 4° C. • 7. […] The supernatant was removed and stored on ice. The procedure was repeated adding the second supernatant to the first. • 8. The protein concentration was determined using e.g. a Bio-Rad protein assay. • 9. All fractions were stored at −80° C. prior to use. Single Tier Assays: • 1. 96-well microtiter plates were coated with membrane preparations of Caco-2 cells either by allowing them to incubate on the plates for 2½ hours at room temperature or by incubating them overnight at 4° C. 100 μl of 10 μg/ml (in 0.05 M carbonate buffer, pH 9.6) of membrane preparation was added to each well. • 2. The plates were flicked out, patted dry and blocked with bovine serum albumin (BSA)/DPBS (200 μl/well) for 1 to 4 hours at room temperature after which they were washed three times in water. • 3. […] Control wells were also set up in which the Caco-2 cell membrane preparations were incubated with unconjugated UEA-1. […] Following overnight incubation the plates were washed thoroughly (3–6 times). The plates were flicked out, patted dry and biotinylated UEA-1 was detected with commercial Streptavidin conjugated to horseradish peroxidase (HRP) (CalBiochem). […] The plates were left to incubate for an hour at room temperature. • 6. The plates were then washed 3–6 times and the biotin-streptavidin binding was detected by adding an HRP substrate OPD (orthophenyl diamine) to each well. 100 μl/well of this substrate at a final concentration of 1.6 mg/ml was added to each well. Before adding to the wells, this substrate was activated by addition of 50 μl of 3% H2O2 per plate and the reaction was allowed to develop in the dark. • 7. The reaction was stopped by adding 50 μl of 4 N H2SO4 to each well after approximately 5–10 minutes or when sufficient colour had developed. The OD490 (absorbance at 490 nm) of each well was measured using a conventional 96 well plate reading spectrophotometer. Two Tier Assays: • 1. 96 well plates were coated with Caco-2 cell membrane preparations in the same manner as described in the single tier assay. • 2. […] 100 μl at these final concentrations were added to each well. • 4. The plates were then left to incubate overnight, a step that would allow the mixtures and compounds to interact with the Caco-2 cell membranes without the presence of the competitor (biotinylated UEA-1) itself. • 5. […]

[2] = system: UEA-1 binding sites on Caco-2 cell membrane preparations; experiment: Two tier competition assay: compound incubated alone with membranes, biotinylated UEA-1 added in next step; set-up: species or system human; details: for Avg % Inhibition / Avg % Inhib / Av % Inhibition: Two Tier Assay; for Avg % Inhibition: library MSI 26; for Avg % Inhib: library TP1012; for Av % Inhibition: library MSI 22
Procedure: as §1, §2, §3

[3] = library MSI 27, read-out: Single Tier Assay IC50
[4] = library MSI 27, read-out: Two Tier Assay IC50
[5] = Table 8, galloyl constructs, read-out: IC 50 (uM) 1st tier (converted)
[6] = Table 8, galloyl constructs, read-out: IC 50 (uM) 2nd tier

CCOc1cc(C(=O)NCCCCC(NC(=O)c2cc(OCC)c(OCC)c(OCC)c2)C(=O)NCCCCC(NC(=O)C(CCCCNC(=O)c2cc(OCC)c(OCC)c(OCC)c2)NC(=O)c2cc(OCC)c(OCC)c(OCC)c2)C(N)=O)cc(OCC)c1OCC (stereo not drawn) [Cpd 19]
IC50 [1, 3]: 186 µM | IC50 [2, 4]: 186 µM

COc1ccc(C(=O)NCCCCC(NC(=O)C(CCCCNC(=O)c2ccc(OC)c(OC)c2)NC(C)=O)C(N)=O)cc1OC (stereo not drawn) [Cpd 34]
Single Tier Assay IC50 ([1]; library MSI 27): 121.40 µg/mL | IC50 [1, 3]: 189 µM | Two Tier Assay IC50 ([2]; library MSI 27): 87.01 µg/mL | IC50 [2, 4]: 135 µM

NC(=O)c1cc(O)c(O)c(O)c1 [3,4,5-trihydroxybenzamide, reference compound]
Avg % Inhibtion ([1]; 62.5 μg/ml): 41.7% | Avg % Inhibtion ([1]; 250 μg/ml): 21% | Avg % Inhibition ([2]; 62.5 μg/ml): 10.7% | Avg % Inhibition ([2]; 250 μg/ml): 41.4%

NC(=O)C(CCCCNC(=O)c1cc(O)c(O)c(O)c1)NC(=O)C(CCCCNC(=O)c1cc(O)c(O)c(O)c1)NC(=O)C(CCCCNC(=O)c1cc(O)c(O)c(O)c1)NC(=O)c1cc(O)c(O)c(O)c1 (stereo not drawn) [Cpd 46]
IC 50 (ug/ml) 1st tier ([1]; Table 8, galloyl constructs): 8 µg/mL (≈ 7.92 µM) | IC50 [1, 5]: 8 µM | Single Tier Assay IC50 ([1]; library MSI 27): 14.92 µg/mL | IC50 [1, 3]: 14.8 µM | IC 50 (ug/ml) 2nd tier ([2]; Table 8, galloyl constructs): 0.6 µg/mL (≈ 0.594 µM) | IC50 [2, 6]: 0.6 µM | Two Tier Assay IC50 ([2]; library MSI 27): 2.00 µg/mL | IC50 [2, 4]: 1.98 µM

CCOc1cc(C(=O)NCCCCC(NC(C)=O)C(N)=O)cc(OCC)c1OCC (stereo not drawn) [Cpd 11]
IC50 [1, 3]: 590 µM | IC50 [2, 4]: 590 µM

NC(=O)C(CCCNC(=O)c1cc(O)c(O)c(O)c1)NC(=O)C(CCCNC(=O)c1cc(O)c(O)c(O)c1)NC(=O)c1cc(O)c(O)c(O)c1 (stereo not drawn) [MSI 34 #11]
IC 50 (ug/ml) 1st tier ([1]; Table 8, galloyl constructs): 1 µg/mL (≈ 1.43 µM) | IC50 [1, 5]: 2 µM | IC 50 (ug/ml) 2nd tier ([2]; Table 8, galloyl constructs): 0.8 µg/mL (≈ 1.14 µM) | IC50 [2, 6]: 1 µM

CCCC[C@H](CNC)N(C)C[C@H](CC1CCCCC1)NC(=O)c1cc(O)c(O)c(O)c1 [compound 90]
Avg % Inhib ([2]; 50 μg/ml): 53.66% | Avg % Inhib ([2]; 250 μg/ml): 69.94%

COc1cc(C(=O)NCCCCC(NC(=O)C(CCCCNC(=O)c2cc(OC)c(OC)c(OC)c2)NC(=O)c2cc(OC)c(OC)c(OC)c2)C(N)=O)cc(OC)c1OC (stereo not drawn) [Cpd 28]
IC50 [1, 3]: 292 µM | IC50 [2, 4]: 292 µM

COc1cc(C(=O)NCCCCC(NC(C)=O)C(N)=O)cc(OC)c1O (stereo not drawn) [Cpd 9]
Single Tier Assay IC50 ([1]; library MSI 27): 125.00 µg/mL | IC50 [1, 3]: 340 µM | Two Tier Assay IC50 ([2]; library MSI 27): 101.20 µg/mL | IC50 [2, 4]: 275 µM

CC(=O)NC(CCCCNC(=O)c1cc(O)c(O)c(O)c1)C(=O)NC(CCCCNC(=O)c1cc(O)c(O)c(O)c1)C(=O)NC(CCCCNC(=O)c1cc(O)c(O)c(O)c1)C(N)=O (stereo not drawn) [Cpd 54]
IC 50 (ug/ml) 1st tier ([1]; Table 8, galloyl constructs): 4 µg/mL (≈ 4.44 µM) | IC50 [1, 5]: 5 µM | Single Tier Assay IC50 ([1]; library MSI 27): 6.85 µg/mL | IC50 [1, 3]: 7.61 µM | IC 50 (ug/ml) 2nd tier ([2]; Table 8, galloyl constructs): 2 µg/mL (≈ 2.22 µM) | IC50 [2, 6]: 3 µM | Two Tier Assay IC50 ([2]; library MSI 27): 3.00 µg/mL | IC50 [2, 4]: 3.33 µM

CNC[C@H](Cc1ccc2ccccc2c1)N(C)C[C@H](Cc1ccc(Cl)cc1)NC(=O)c1cc(O)c(O)c(O)c1 [L-NapAla, L-pCl-Phe, Gallic Acid]
Av % Inhibition ([1]; 62.5 μg/ml): 31.5% | Av % Inhibition ([1]; 250 μg/ml): 46.9% | Av % Inhibition ([2]; 62.5 μg/ml): 26.7% | Av % Inhibition ([2]; 250 μg/ml): 54.7%

CCC[C@H](CNC)N(C)C[C@H](NC(=O)c1cc(O)c(O)c(O)c1)C(C)C [D-Nve, D-Val, Gallic Acid]
Av % Inhibition ([1]; 62.5 μg/ml): 13.7% | Av % Inhibition ([1]; 250 μg/ml): 46% | Av % Inhibition ([2]; 62.5 μg/ml): 12.1% | Av % Inhibition ([2]; 250 μg/ml): 29.8%
